In patent US7396837B2, “Antitumoral analogs of lamellarins” (Pharma Mar, S.A.U., priority 2002, dated 2008):
Where two headings read alike, the source gives them in different places.

Key:
Format in all cases: cell-based
HT-29 = assay: SRB colorimetric cell growth inhibition assay, HT-29; conditions: Homo sapiens; for GI50: GI=growth inhibition, read-out: GI50 HT-29; for CC50: cell killing (cytotoxic effect), read-out: LC50 HT-29; for IC (TGI): total growth inhibition (cytostatic effect), read-out: TGI HT-29
Source text: (§1) The finality of these assays is to interrupt the growth of an “in vitro” tumor cell culture by means a continued exhibition of the cells to the sample to be testing.
(§2) A colorimetric type of assay, using sulforhodamine B (SRB) reaction has been adapted for a quantitative measurement of cell growth and viability (following the technique described by P. A. Skehan, et al., J. Natl. Cancer Inst. 1990, 82, 1107-1112).
(§3) This form of assay employs 96 well cell culture microplates of 9 mm diameter (T. Mosmann et al., J. of Immunological Methods 1983, 65, 55-63; G. T. Faircloth et al., J. of Tissue and Culture Methods 1988, 11, 201-205).
(§4) Most of the cell lines are obtained from American Type Culture Collection (ATCC) derived from different human cancer types.
(§5) The values for mean +/− SD of data from triplicate wells are calculated. Some parameters for cellular responses can be calculated: GI=growth inhibition, TGI=total growth inhibition (cytostatic effect) and LC=cell killing (cytotoxic effect).

LoVo = assay: SRB colorimetric cell growth inhibition assay, LoVo; conditions: Homo sapiens; for GI50: GI=growth inhibition, read-out: GI50 LOVO; for CC50: cell killing (cytotoxic effect), read-out: LC50 LOVO; for IC (TGI): total growth inhibition (cytostatic effect), read-out: TGI LOVO
Source text: as §1, §2, §3, §4, §5

SK-MEL-28 = assay: SRB colorimetric cell growth inhibition assay, SK-MEL-28; conditions: Homo sapiens, SK-MEL-28, MEL-28; for GI50: GI=growth inhibition, read-out: GI50 MEL-28; for CC50: cell killing (cytotoxic effect), read-out: LC50 MEL-28; for IC (TGI): total growth inhibition (cytostatic effect), read-out: TGI MEL-28
Source text: as §1, §2, §3, §4, §5

LoVo-Dox = assay: SRB colorimetric cell growth inhibition assay, LoVo-Dox (MDR); conditions: Homo sapiens, LOVO-DOX; for GI50: GI=growth inhibition, read-out: GI50 LOVO-DOX; for CC50: cell killing (cytotoxic effect), read-out: LC50 LOVO-DOX; for IC (TGI): total growth inhibition (cytostatic effect), read-out: TGI LOVO-DOX
Source text: as §1, §2, §3, §4, §5

A-549 = assay: SRB colorimetric cell growth inhibition assay, A-549; conditions: Homo sapiens, A549, A-549; for GI50: GI=growth inhibition, read-out: GI50 A-549; for CC50: cell killing (cytotoxic effect), read-out: LC50 A-549; for IC (TGI): total growth inhibition (cytostatic effect), read-out: TGI A-549
Source text: as §1, §2, §3, §4, §5

PANC-1 = assay: SRB colorimetric cell growth inhibition assay, PANC-1; conditions: Homo sapiens; for GI50: GI=growth inhibition, read-out: GI50 PANC-1; for CC50: cell killing (cytotoxic effect), read-out: LC50 PANC-1; for IC (TGI): total growth inhibition (cytostatic effect), read-out: TGI PANC-1
Source text: as §1, §2, §3, §4, §5

IGROV-ET = assay: SRB colorimetric cell growth inhibition assay, IGROV-ET (ET-743 resistant); conditions: Homo sapiens, IGROV-ET; for GI50: GI=growth inhibition, read-out: GI50 IGROV-ET; for CC50: cell killing (cytotoxic effect), read-out: LC50 IGROV-ET; for IC (TGI): total growth inhibition (cytostatic effect), read-out: TGI IGROV-ET
Source text: as §1, §2, §3, §4, §5

DU-145 = assay: SRB colorimetric cell growth inhibition assay, DU-145; conditions: Homo sapiens; for GI50: GI=growth inhibition, read-out: GI50 DU-145; for CC50: cell killing (cytotoxic effect), read-out: LC50 DU-145; for IC (TGI): total growth inhibition (cytostatic effect), read-out: TGI DU-145
Source text: as §1, §2, §3, §4, §5

LNCaP = assay: SRB colorimetric cell growth inhibition assay, LNCaP; conditions: Homo sapiens, LNCaP, LN-caP; for GI50: GI=growth inhibition, read-out: GI50 LN-caP; for CC50: cell killing (cytotoxic effect), read-out: LC50 LN-caP; for IC (TGI): total growth inhibition (cytostatic effect), read-out: TGI LN-caP
Source text: as §1, §2, §3, §4, §5

HeLa-APL = assay: SRB colorimetric cell growth inhibition assay, HeLa-APL (aplidine resistant); conditions: Homo sapiens; for GI50: read-out: GI50 HELA-APL; for CC50: read-out: LC50 HELA-APL; for IC (TGI): read-out: TGI HELA-APL
Source text: as §1, §2, §3, §4, §5

IGROV = assay: SRB colorimetric cell growth inhibition assay, IGROV
Source text: as §1, §2, §3, §4, §5

SK-BR-3 = assay: SRB colorimetric cell growth inhibition assay, SK-BR-3; conditions: Homo sapiens; for GI50: GI=growth inhibition, read-out: GI50 SK-BR-3; for CC50: cell killing (cytotoxic effect), read-out: LC50 SK-BR-3; for IC (TGI): total growth inhibition (cytostatic effect), read-out: TGI SK-BR-3
Source text: as §1, §2, §3, §4, §5

HeLa = assay: SRB colorimetric cell growth inhibition assay, HeLa; conditions: Homo sapiens, HeLa; for GI50: read-out: GI50 HELA; for CC50: read-out: LC50 HELA; for IC (TGI): read-out: TGI HELA
Source text: as §1, §2, §3, §4, §5

[1] = Homo sapiens, IGROV; cell killing (cytotoxic effect); read-out: LC50 IGROV

Work on CC[C@H](C)[C@H](N)C(=O)Oc1ccc(-c2c3c4cc(OC)c(OC(=O)[C@@H](N)[C@@H](C)CC)cc4oc(=O)c3n3ccc4cc(OC(=O)[C@@H](N)[C@@H](C)CC)c(OC)cc4c23)cc1OC [Compound 209] yielded a GI50 (HT-29; HT-29, HT-29) of 3380 nM, a CC50 (HT-29; HT-29, HT-29) of 10500 nM and an IC (TGI) (HT-29; HT-29, HT-29) of 9990 nM. The GI50 (LoVo; LoVo) was 119 nM, the CC50 (LoVo; LoVo) was 527 nM and the IC (TGI) (LoVo; LoVo) was 251 nM. For the same molecule, the GI50 (SK-MEL-28) was 32.8 nM, the CC50 (SK-MEL-28) was 480 nM and the IC (TGI) (SK-MEL-28) was 83.9 nM. It also gave a GI50 (LoVo-Dox) of 137 nM, a CC50 (LoVo-Dox) of 2600 nM and an IC (TGI) (LoVo-Dox) of 488 nM. The GI50 (A-549) was 42.8 nM, the CC50 (A-549) was 713 nM and the IC (TGI) (A-549) was 195 nM. It also gave a GI50 (PANC-1; PANC-1, PANC-1) of 67.4 nM, a CC50 (PANC-1; PANC-1, PANC-1) of 1030 nM and an IC (TGI) (PANC-1; PANC-1, PANC-1) of 282 nM. For the same molecule, the GI50 (IGROV-ET) was 31.7 nM, the CC50 (IGROV-ET) was 345 nM and the IC (TGI) (IGROV-ET) was 70.1 nM. For the same molecule, the GI50 (DU-145; DU-145, DU-145) was 4.29 nM, the CC50 (DU-145; DU-145, DU-145) was 40.4 nM and the IC (TGI) (DU-145; DU-145, DU-145) was 11.9 nM. For the same molecule, the GI50 (LNCaP) was 15.8 nM, the CC50 (LNCaP) was 233 nM and the IC (TGI) (LNCaP) was 56 nM. It also gave a GI50 (HeLa-APL; HELA-APL, GI=growth inhibition) of 82.7 nM, a CC50 (HeLa-APL; HELA-APL, cell killing (cytotoxic effect)) of 517 nM and an IC (TGI) (HeLa-APL; HELA-APL, total growth inhibition (cytostatic effect)) of 221 nM. The GI50 (IGROV; Homo sapiens, IGROV; GI=growth inhibition; read-out: GI50 IGROV) was 33.7 nM, the CC50 (IGROV; [1]) was 477 nM and the IC (TGI) (IGROV; Homo sapiens, IGROV; total growth inhibition (cytostatic effect); read-out: TGI IGROV) was 124 nM. It also gave a GI50 (SK-BR-3; SK-BR-3, SK-BR-3) of 47.8 nM, a CC50 (SK-BR-3; SK-BR-3, SK-BR-3) of 101 nM and an IC (TGI) (SK-BR-3; SK-BR-3, SK-BR-3) of 69.5 nM. For the same molecule, the GI50 (HeLa; GI=growth inhibition) was 66.2 nM, the CC50 (HeLa; cell killing (cytotoxic effect)) was 1010 nM and the IC (TGI) (HeLa; total growth inhibition (cytostatic effect)) was 269 nM.
With CC[C@H](C)[C@H](NC(=O)OC(C)(C)C)C(=O)Oc1ccc(-c2c3c4cc(OC)c(OC(=O)[C@@H](NC(=O)OC(C)(C)C)[C@@H](C)CC)cc4oc(=O)c3n3ccc4cc(OC(=O)[C@@H](NC(=O)OC(C)(C)C)[C@@H](C)CC)c(OC)cc4c23)cc1OC [Compound 208] the CC50 (HT-29; HT-29, HT-29) was 8780 nM, the GI50 (HT-29; HT-29) was 8780 nM and the IC (TGI) (HT-29; HT-29) was 8780 nM. For the same molecule, the CC50 (LoVo; LoVo) was 8780 nM, the GI50 (LoVo; LOVO) was 8780 nM and the IC (TGI) (LoVo; LOVO) was 8780 nM. The GI50 (SK-MEL-28) was 8780 nM, the CC50 (SK-MEL-28) was 8780 nM and the IC (TGI) (SK-MEL-28) was 8780 nM. For the same molecule, the GI50 (LoVo-Dox) was 8780 nM, the CC50 (LoVo-Dox) was 8780 nM and the IC (TGI) (LoVo-Dox) was 8780 nM. For the same molecule, the GI50 (A-549) was 8780 nM, the CC50 (A-549) was 8780 nM and the IC (TGI) (A-549) was 8780 nM. The CC50 (PANC-1; PANC-1, PANC-1) was 8780 nM, the IC (TGI) (PANC-1; PANC-1, PANC-1) was 8780 nM and the GI50 (PANC-1; PANC-1) was 5920 nM. The GI50 (IGROV-ET) was 8780 nM, the CC50 (IGROV-ET) was 8780 nM and the IC (TGI) (IGROV-ET) was 8780 nM. The CC50 (DU-145; DU-145, DU-145) was 8780 nM, the GI50 (DU-145; DU-145) was 8780 nM and the IC (TGI) (DU-145; DU-145) was 8780 nM. For the same molecule, the GI50 (LNCaP) was 1460 nM, the CC50 (LNCaP) was 5830 nM and the IC (TGI) (LNCaP) was 2910 nM. It also gave a GI50 (HeLa-APL) of 154 nM, a CC50 (HeLa-APL) of 1140 nM and an IC (TGI) (HeLa-APL) of 385 nM. It also gave a CC50 (IGROV; [1]) of 8780 nM, a GI50 (IGROV; Homo sapiens; IGROV; GI=growth inhibition; read-out: GI50 IGROV) of 8780 nM and an IC (TGI) (IGROV; Homo sapiens; IGROV; total growth inhibition (cytostatic effect); read-out: TGI IGROV) of 8780 nM. It also gave a CC50 (SK-BR-3; SK-BR-3, SK-BR-3) of 8780 nM, a GI50 (SK-BR-3; SK-BR-3) of 5010 nM and an IC (TGI) (SK-BR-3; SK-BR-3) of 7970 nM. For the same molecule, the GI50 (HeLa) was 208 nM, the CC50 (HeLa) was 2310 nM and the IC (TGI) (HeLa) was 618 nM.
